Results: ChEMBL document CHEMBL1201862, “PubChem BioAssay data set” (2004)
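Step 1: Grow cells in 96-well plates. Step 2: Expose to compound for 48 hours at 5 concentrations. Step 3: Interpolate endpoints linearly; if unreached, use highest concentration. At the GI50, growth is halved.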 Activity calls are given as the source filed them. Rule as the data show it: active = GI50 up to about 1.1 µM and inactive = higher.

What was measured:
Test in all cases: DTP human tumour cell line panel, 48 h
[1] = test system: K562
[2] = test system: KM12
[3] = test system: U-251
[4] = test system: MDA-N
[5] = test system: SK-MEL-28
[6] = test system: MDA-MB-231
[7] = test system: SK-MEL-2
[8] = test system: NCI-H226
[9] = test system: UO-31
[10] = test system: UACC-62
[11] = test system: NCI-H23
[12] = test system: OVCAR-3
[13] = test system: T47D
[14] = test system: MCF7
[15] = test system: 786-0
[16] = test system: MDA-MB-435
[17] = test system: M14
[18] = test system: SK-OV-3
[19] = test system: SN12C
[20] = test system: Malme-3M
[21] = test system: SF-539
[22] = test system: HOP-92
[23] = test system: HL-60
[24] = test system: SNB-19
[25] = test system: LOX IMVI
[26] = test system: HOP-62
[27] = test system: SR
[28] = test system: BT-549
[29] = test system: HT-29
[30] = test system: OVCAR-5
[31] = test system: TK-10
[32] = test system: A549
[33] = test system: PC-3
[34] = test system: OVCAR-4
[35] = test system: EKVX
[36] = test system: NCI-H460
[37] = test system: DU-145
[38] = test system: HCC 2998
[39] = test system: NCI/ADR-RES
[40] = test system: A498
[41] = test system: Hs-578T
[42] = test system: CAKI-1
[43] = test system: SF-295
[44] = test system: HCT-15
[45] = test system: RXF 393
[46] = test system: UACC-257
[47] = test system: COLO 205
[48] = test system: RPMI-8226
[49] = test system: OVCAR-8
[50] = test system: IGROV-1
[51] = test system: SW-620
[52] = test system: CCRF-CEM
[53] = test system: SK-MEL-5
[54] = test system: HCT-116
[55] = test system: ACHN
[56] = test system: SF-268
[57] = test system: MOLT-4
[58] = test system: NCI-H522
[59] = test system: SNB-75

C=CC(=O)N1C/C(=C\c2ccc([N+](=O)[O-])cc2)C(=O)/C(=C/c2ccc([N+](=O)[O-])cc2)C1
GI50 [1]: 0.0982 µM (active)
GI50 [2]: 0.175 µM (active)
GI50 [3]: 0.0697 µM (active)
GI50 [4]: 0.169 µM (active)
GI50 [5]: 0.275 µM (active)
GI50 [6]: 0.161 µM (active)
GI50 [7]: 0.43 µM (active)
GI50 [8]: 0.2 µM (active)
GI50 [9]: 0.147 µM (active)
GI50 [10]: 0.21 µM (active)
GI50 [11]: 0.256 µM (active)
GI50 [12]: 0.132 µM (active)
GI50 [13]: 0.419 µM (active)
GI50 [14]: < 0.0243 µM (active)
GI50 [15]: < 0.0203 µM (active)
GI50 [16]: 0.254 µM (active)
GI50 [17]: 0.19 µM (active)
GI50 [18]: 1.52 µM (inactive)
GI50 [19]: 0.195 µM (active)
GI50 [20]: 0.201 µM (active)
GI50 [21]: < 0.019 µM (active)
GI50 [22]: 0.811 µM (active)
GI50 [23]: > 100 µM (inactive)
GI50 [24]: 1.16 µM (inactive)
GI50 [25]: < 0.0179 µM (active)
GI50 [26]: 0.222 µM (active)
GI50 [27]: 0.289 µM (active)
GI50 [28]: 0.194 µM (active)
GI50 [29]: < 0.0176 µM (active)
GI50 [30]: 0.29 µM (active)
GI50 [31]: 0.713 µM (active)
GI50 [32]: 0.427 µM (active)
GI50 [33]: 0.0698 µM (active)
GI50 [34]: 0.233 µM (active)
GI50 [35]: 0.243 µM (active)
GI50 [36]: 0.147 µM (active)
GI50 [37]: 0.621 µM (active)
GI50 [38]: 0.161 µM (active)
GI50 [39]: 0.258 µM (active)
GI50 [40]: 0.28 µM (active)
GI50 [41]: < 0.0422 µM (active)
GI50 [42]: 0.128 µM (active)
GI50 [43]: 0.208 µM (active)
GI50 [44]: 0.0253 µM
GI50 [45]: 0.142 µM (active)
GI50 [46]: 0.794 µM (active)
GI50 [47]: 0.0483 µM (active)
GI50 [48]: 0.0193 µM (active)
GI50 [49]: < 0.0391 µM (active)
GI50 [50]: 0.0728 µM (active)
GI50 [51]: 0.0304 µM (active)
GI50 [52]: 0.0565 µM (active)
GI50 [53]: 0.719 µM (active)
GI50 [54]: < 0.017 µM (active)
GI50 [55]: 0.16 µM (active)
GI50 [56]: < 0.0403 µM (active)
GI50 [57]: 0.0791 µM (active)

Nc1ccc(S(=O)(=O)Nc2nc3ccccc3nc2Nc2ccc(S(N)(=O)=O)cc2)cc1
GI50 [1]: 69.8 µM (inactive)
GI50 [2]: 33 µM (inactive)
GI50 [3]: 27.7 µM (inactive)
GI50 [58]: 23.3 µM (inactive)
GI50 [4]: 56.6 µM (inactive)
GI50 [5]: 30.2 µM (inactive)
GI50 [6]: 53.8 µM (inactive)
GI50 [59]: 13.6 µM (inactive)
GI50 [7]: 19.1 µM (inactive)
GI50 [8]: 56.4 µM (inactive)
GI50 [9]: 18.2 µM (inactive)
GI50 [10]: 30.8 µM (inactive)
GI50 [11]: 20.5 µM (inactive)
GI50 [12]: 32.4 µM (inactive)
GI50 [13]: 40.7 µM (inactive)
GI50 [14]: 57.8 µM (inactive)
GI50 [15]: 58.3 µM (inactive)
GI50 [16]: 49.3 µM (inactive)
GI50 [17]: 36.3 µM (inactive)
GI50 [18]: 29.8 µM (inactive)
GI50 [19]: 34.6 µM (inactive)
GI50 [20]: 22.8 µM (inactive)
GI50 [21]: 31.8 µM (inactive)
GI50 [22]: 17.6 µM (inactive)
GI50 [23]: 25.1 µM (inactive)
GI50 [24]: 25.2 µM (inactive)
GI50 [25]: 17.9 µM (inactive)
GI50 [26]: 29.2 µM (inactive)
GI50 [27]: 37 µM (inactive)
GI50 [28]: 20.2 µM (inactive)
GI50 [29]: 57.8 µM (inactive)
GI50 [30]: > 100 µM (inactive)
GI50 [31]: 44.6 µM (inactive)
GI50 [32]: 47.1 µM (inactive)
GI50 [33]: 34.9 µM (inactive)
GI50 [34]: 2.45 µM (inactive)
GI50 [35]: 75.7 µM (inactive)
GI50 [36]: > 100 µM (inactive)
GI50 [37]: 44.9 µM (inactive)
GI50 [39]: 45.9 µM (inactive)
GI50 [41]: 23 µM (inactive)
GI50 [42]: 68.7 µM (inactive)
GI50 [43]: 26.9 µM (inactive)
GI50 [44]: 37.7 µM
GI50 [45]: 20.8 µM (inactive)
GI50 [46]: 46 µM (inactive)
GI50 [47]: 52.6 µM (inactive)
GI50 [48]: 33.7 µM (inactive)
GI50 [49]: 45.4 µM (inactive)
GI50 [50]: 21.8 µM (inactive)
GI50 [51]: 36.9 µM (inactive)
GI50 [52]: 48.8 µM (inactive)
GI50 [53]: 49.8 µM (inactive)
GI50 [54]: 38.5 µM (inactive)
GI50 [55]: 42.7 µM (inactive)
GI50 [56]: 17.5 µM (inactive)
GI50 [57]: 15.4 µM (inactive)

O=c1oc2ccccc2cc1-c1cn2cc(Cl)ccc2n1
GI50 [1]: 0.495 µM (active)
GI50 [2]: 0.296 µM (active)
GI50 [3]: 0.653 µM (active)
GI50 [58]: 0.104 µM (active)
GI50 [4]: 0.0881 µM (active)
GI50 [5]: 2.08 µM (inactive)
GI50 [6]: 3.01 µM (inactive)
GI50 [59]: 1.76 µM (inactive)
GI50 [7]: 3.27 µM (inactive)
GI50 [8]: 15.6 µM (inactive)
GI50 [9]: 1.32 µM (inactive)
GI50 [10]: 0.245 µM (active)
GI50 [11]: 3.09 µM (inactive)
GI50 [12]: 0.497 µM (active)
GI50 [13]: 11 µM (inactive)
GI50 [14]: 0.435 µM (active)
GI50 [15]: 1 µM (active)
GI50 [16]: 0.0434 µM (active)
GI50 [17]: 0.544 µM (active)
GI50 [18]: 0.773 µM (active)
GI50 [19]: 2.98 µM (inactive)
GI50 [20]: 0.458 µM (active)
GI50 [21]: 1.48 µM (inactive)
GI50 [22]: 5.45 µM (inactive)
GI50 [23]: 2.59 µM (inactive)
GI50 [24]: 0.494 µM (active)
GI50 [25]: 0.698 µM (active)
GI50 [26]: 0.714 µM (active)
GI50 [27]: 0.0687 µM (active)
GI50 [28]: 2.33 µM (inactive)
GI50 [29]: 7.11 µM (inactive)
GI50 [30]: 10.1 µM (inactive)
GI50 [31]: 7.53 µM (inactive)
GI50 [32]: 0.719 µM (active)
GI50 [33]: 1.93 µM (inactive)
GI50 [34]: 2.46 µM (inactive)
GI50 [35]: 21.6 µM (inactive)
GI50 [36]: 0.488 µM (active)
GI50 [37]: 5.57 µM (inactive)
GI50 [38]: 1.13 µM (inactive)
GI50 [39]: 0.345 µM (active)
GI50 [41]: 1.23 µM (inactive)
GI50 [42]: 0.422 µM (active)
GI50 [43]: 0.535 µM (active)
GI50 [44]: 0.298 µM
GI50 [45]: 2.28 µM (inactive)
GI50 [46]: 4.58 µM (inactive)
GI50 [47]: 0.865 µM (active)
GI50 [48]: 0.532 µM (active)
GI50 [49]: 1.71 µM (inactive)
GI50 [50]: 0.685 µM (active)
GI50 [51]: 0.361 µM (active)
GI50 [53]: 0.782 µM (active)
GI50 [54]: 0.448 µM (active)
GI50 [55]: 0.586 µM (active)
GI50 [56]: 1.44 µM (inactive)
GI50 [57]: 0.422 µM (active)
